Assay results as given in patent publication US20240174690A1, “ANNULATED 2-AMINO-3-CYANO THIOPHENES AND DERIVATIVES FOR THE TREATMENT OF CANCER” (BOEHRINGER INGELHEIM INTERNATIONAL GMBH, priority 2021, published 2024).

Key:
[1] = target: KRAS (G12D)::SOS1 (Homo sapiens (Human), UniProt P01116, G12D); experiment: KRAS::SOS1 AlphaScreen binding assay, KRAS G12D
Description: This assay can be used to examine the potency with which compounds according to the invention binding to (mutated) KRAS inhibit the protein-protein interaction between SOS1 and (mutated) KRAS e.g., KRAS WT, KRAS G12C, KRAS G12D, KRAS G12V, KRAS G13D. […] Low IC50 values in this assay setting are indicative of strong inhibition of protein-protein interaction between SOS1 and KRAS:
These assays measure the inhibitory effect of compounds on KRAS mutant protein-protein interactions using the Alpha Screen technology by Perkin Elmer.
The following (mutant) enzyme forms of KRAS and interacting proteins are used in these assays at the given concentrations: • KRAS (G12D) 1-169, N-terminal 6His-tag, C-terminal avi-tag (Xtal BioStructures, Inc.); final assay concentration 10 nM and SOS1 564-1049, N-terminal 229 GST-tag, TEV cleavage site (Viva Biotech Ltd); final assay concentration 5 nM; • KRAS (G12C) 1-169, N-terminal 6His-tag for purification, cleaved off, C-terminal avi-tag, biotinylated, mutations: C51S, C80L, C118S (in house); final assay concentration 7.5 nM and SOS1 564-1049, N-terminal 229 GST-tag, TEV cleavage site (Viva Biotech Ltd); final assay concentration 5 nM; • KRAS (G12V) 1-169, N-terminal 6His-tag for purification, cleaved off, C-terminal avi-tag, biotinylated, TEV cleavage site, mutation: C118S, GDP loaded (in house); final assay concentration 10 nM and SOS1 564-1049, N-terminal 229 GST-tag, TEV cleavage site (Viva Biotech Ltd); final assay concentration 10 nM; • KRAS (G13D) 1-169, N-terminal 6His-tag for purification, cleaved off, C-terminal avi-tag, biotinylated, TEV cleavage site, mutation: C118S, GDP loaded (in house); final assay concentration 10 nM and SOS1 564-1049, N-terminal 229 GST-tag, TEV cleavage site (Viva Biotech Ltd); final assay concentration 10 nM; • KRAS (WT) 1-169, N-terminal 6His-tag for purification, cleaved off, C-terminal avi-tag, biotinylated, TEV cleavage site, mutation: C118S, GDP loaded (in house); final assay concentration 10 nM and SOS1 564-1049, N-terminal 229 GST-tag, TEV cleavage site (Viva Biotech Ltd); final assay concentration 10 nM.
Test compounds dissolved in DMSO are dispensed onto assay plates (Proxiplate 384 PLUS, white, PerkinElmer; 6008289) using an Access Labcyte Workstation with the Labcyte Echo 55×. For the chosen highest assay concentration of 100 μM, 150 nL of compound solution are transferred from a 10 mM DMSO compound stock solution. A series of eleven fivefold dilutions per compound are transferred to the assay plate, compound dilutions are tested in duplicates. DMSO are added as backfill to a total volume of 150 nL.
The assays run on a fully automated robotic system in a darkened room below 100 Lux. To 150 nl of compound dilution 10 μl of a mix including KRAS mutant protein, SOS1 (final assay concentrations see above) and GDP nucleotide (Sigma G7127; final assay concentration 10 μM) in assay buffer (1×PBS, 0.1% BSA, 0.05% Tween 20) are added into columns 1-24.
After 30 minutes incubation time 5 μl of Alpha Screen bead mix in assay buffer are added into columns 1-23. Bead mix consists of AlphaLISA Glutathione Acceptor Beads (PerkinElmer, Cat No AL109) and AlphaScreen Streptavidin Donor Beads (PerkinElmer Cat No 6760002) in assay buffer at a final assay concentration of 10 μg/ml each.
Plates are kept at room temperature in a darkened incubator. After an additional 60 minutes incubation time the signal is measured in a PerkinElmer Envision HTS Multilabel Reader using the AlphaScreen specs from PerkinElmer.
Each plate contains up to 16 wells of a negative control depending on the dilution procedure (platewise or serial) (DMSO instead of test compound; with KRAS mutant::SOS1 GDP mix and bead mix; column 23) and 16 wells of a positive control (DMSO instead of test compound; with KRAS mutant::SOS1 GDP mix w/o bead mix; column 24).
As internal control known inhibitors of KRAS mutant::SOS1 interaction can be measured on each compound plate. […]

[2] = system: NCI-H2122 cells; experiment: NCI-H2122 CTG proliferation assay (120 h) (NSCLC, G12C); assay type: cell-based; conditions: Homo sapiens
Procedure: NCI-H2122 CTG Proliferation Assay (120 h) (NSCLC, G12C)
The CTG assay is designed to measure quantitatively the proliferation of NCI-H2122 cells (ATCC CRL-5985), using the CellTiter Glow Assay Kit (Promega G7571). Cells are grown in RPMI medium (ATCC) supplemented with Fetal Calf Serum (Life Technologies, Gibco BRL, Cat. No. 10270-106). On “day 0” 200 NCI-H2122 cells are seeded in 60 μL RPMI ATCC+10% FCS+Penstrep in a black 384-well plate, flat and clear bottom (Greiner, PNr. 781091). Cells are then incubated in the plates at 37° C. in a CO2 incubator overnight. On day 1, compounds (10 mM stock in DMSO) are added with the ECHO acoustic liquid handler system (Beckman Coulter), including DMSO controls. Plates are incubated for 120 h, and cell viability is measured using CellTiter-Glo luminescent cell viability reagent (Promega product code G7570). Viability (stated as percent of control) is defined as relative luminescence units RLU of each well divided by the RLU of cells in DMSO controls. IC50 values are determined from viability measurements by non-linear regression using a four parameter model.

[3] = Plasma protein binding assay (PPB), equilibrium dialysis, 10% FCS in PBS; assay type: in vitro ADME; conditions: bovine, read-out: PPB 10% FCS (% fu)
Procedure: Binding of test compounds to plasma was determined using equilibrium dialysis (ED) and quantitative mass spectrometry interfaced with liquid chromatography (LC-MS). In brief, ED was performed with dialysis devices consisting of two chambers separated by a semipermeable membrane with a molecular weight cut-off of 5-10 kg/mol. One chamber was filled with 10% FCS in PBS containing 1-10 μmol/L test compound and the other chamber was filled with phosphate-buffer saline (PBS) with or without dextran. The dialysis chamber was incubated for 3-5 hours at 37° C. After incubation, protein was precipitated from aliquots of each chamber and the concentration of test compound in the supernatant of the plasma-containing compartment (Cserum) and of the buffer-containing compartment (Cbuffer) was determined by LC-MS. The fraction of unbound test compound (not bound to plasma) (fu) was calculated according to the following equation: […]

Chain of KRAS (G12D)::SOS1 (P01116 other isoform, or with tags, fused parts or gaps G12D): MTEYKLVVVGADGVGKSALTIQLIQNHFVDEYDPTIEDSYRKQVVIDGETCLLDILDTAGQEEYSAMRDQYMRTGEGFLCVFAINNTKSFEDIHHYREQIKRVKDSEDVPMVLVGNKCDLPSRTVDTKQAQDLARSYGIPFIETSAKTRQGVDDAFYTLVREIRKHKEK

Row | Structure (SMILES) | IC50 [1] | IC50 [2] | fraction unbound [3]
1 | C[C@H](Oc1cc(N2C[C@H](C)NC3(CC3)C2)nc(-c2onc3c2CCC[C@@]32CCCc3sc(N)c(C#N)c32)n1)[C@@H]1CCCN1C [I-8] | 1 nM | 3040 nM | 0.77
2 | C[C@H](Oc1cc(N2CCCC3(COC3)C2)nc(-c2noc3c2CCC[C@@]32CCCc3sc(N)c(C#N)c32)n1)[C@@H]1CCCN1C [II-72] | 2 nM | 2250 nM | 0.1
3 | Cc1cn(C)nc1-c1cc(O[C@@H](C)[C@@H]2CCCN2C)nc(-c2noc3c2CCC[C@@]32CCCc3sc(N)c(C#N)c32)n1 [II-68] | 9 nM | 1230 nM | 0.09
4 | C[C@H](Oc1cc(-n2ccnc2)nc(-c2noc3c2CCC[C@@]32CCCc3sc(N)c(C#N)c32)n1)[C@@H]1CCCN1C [II-69] | 2 nM | 515 nM | 0.45
5 | C[C@H](Oc1cc(-n2ccncc2=O)nc(-c2noc3c2CCC[C@@]32CCCc3sc(N)c(C#N)c32)n1)[C@@H]1CCCN1C [II-116] | 2 nM | 1120 nM | 0.35
6 | C[C@H](Oc1cc(N2CCNC[C@@]23CCOC3)nc(-c2noc3c2CCC[C@@]32CCCc3sc(N)c(C#N)c32)n1)[C@@H]1CCCN1C [II-51] | 1 nM | 2560 nM | 0.39
7 | C[C@H](O)Cn1ccc(-c2cc(O[C@@H](C)[C@@H]3CCCN3C)nc(-c3noc4c3CCC[C@@]43CCCc4sc(N)c(C#N)c43)n2)n1 [II-112] | 1 nM | 197 nM | 0.41
8 | C[C@H](Oc1cc(N2CCOC3(CC3)C2)nc(-c2noc3c2CCC[C@@]32CCCc3sc(N)c(C#N)c32)n1)[C@@H]1CCCN1C [II-61] | 3 nM | 2340 nM | 0.26
9 | C[C@H](Oc1cc(N2CCN(C)C2=O)nc(-c2noc3c2CCC[C@@]32CCCc3sc(N)c(C#N)c32)n1)[C@@H]1CCCN1C [II-75] | 1 nM | 3130 nM | 0.16
10 | C[C@H]1CN(C)CCCN1c1cc(N2CCN(C)CC2)nc(-c2onc3c2CCC[C@@]32CCCc3sc(N)c(C#N)c32)n1 [I-7] | 3 nM | 3460 nM | 0.36
11 | C[C@H](Oc1cc(N2CCNC[C@]23CCOC3)nc(-c2noc3c2CCC[C@@]32CCCc3sc(N)c(C#N)c32)n1)[C@@H]1CCCN1C [II-50] | 1 nM | 2680 nM | 0.38
12 | C[C@H](Oc1cc(-c2cncs2)nc(-c2noc3c2CCC[C@@]32CCCc3sc(N)c(C#N)c32)n1)[C@@H]1CCCN1C [II-80] | 7 nM | 1670 nM | 0.23
13 | C[C@H](Oc1cc(N2CCCC2=O)nc(-c2noc3c2CCC[C@@]32CCCc3sc(N)c(C#N)c32)n1)[C@@H]1CCCN1C [II-73] | 2 nM | 1610 nM | 0.22
14 | CO[C@@H]1C[C@@H]([C@H](C)Oc2cc(-c3ccn(C)n3)nc(-c3noc4c3CCC[C@@]43CCCc4sc(N)c(C#N)c43)n2)N(C)C1 [II-91] | 4 nM | 1090 nM | 0.08
15 | C[C@H](Oc1cc(C2COCCO2)nc(-c2noc3c2CCC[C@@]32CCCc3sc(N)c(C#N)c32)n1)[C@@H]1CCCN1C (stereo partly drawn) [II-95] | 2 nM | 1420 nM | 0.53
16 | C[C@H](Oc1cc(-c2ccn(C3COC3)n2)nc(-c2noc3c2CCC[C@@]32CCCc3sc(N)c(C#N)c32)n1)[C@@H]1C[C@H](F)CN1C [II-83] | 20 nM | 3820 nM | 0.18
17 | C[C@H](Oc1cc(N2CCC(C#N)C2)nc(-c2noc3c2CCC[C@@]32CCCc3sc(N)c(C#N)c32)n1)[C@@H]1CCCN1C (stereo partly drawn) [II-99] | 4 nM | 1160 nM | 0.11
18 | C[C@H](Oc1cc(N2CCNC3(CC3)C2)nc(-c2noc3c2CCC[C@@]32CCCc3sc(N)c(C#N)c32)n1)[C@@H]1CCCN1C [II-54] | 1 nM | 1770 nM | 0.3
19 | C[C@H](Oc1cc(-n2cc(Cn3cncn3)nn2)nc(-c2noc3c2CCC[C@@]32CCCc3sc(N)c(C#N)c32)n1)[C@@H]1CCCN1C [II-124] | 2 nM | 901 nM | 0.4
20 | C[C@H](Oc1cc(-n2cncc3ccnc2-3)nc(-c2noc3c2CCC[C@@]32CCCc3sc(N)c(C#N)c32)n1)[C@@H]1CCCN1C [II-105] | 2 nM | 847 nM | 0.07
21 | C[C@H](Oc1cc(N2CCC[C@H](O)C2)nc(-c2noc3c2CCC[C@@]32CCCc3sc(N)c(C#N)c32)n1)[C@@H]1CCCN1C [II-57] | 2 nM | 916 nM | 0.5
22 | C[C@H](Oc1cc(-n2cc(Cn3ccnc3)nn2)nc(-c2noc3c2CCC[C@@]32CCCc3sc(N)c(C#N)c32)n1)[C@@H]1CCCN1C [II-113] | 2 nM | 661 nM | 0.39
23 | C[C@H](Oc1cc(N2CC[C@H](N(C)C)C2)nc(-c2noc3c2CCC[C@@]32CCCc3sc(N)c(C#N)c32)n1)[C@@H]1CCCN1C [II-49] | 1 nM | 2840 nM | 0.36
24 | C[C@H](Oc1cc(-c2cnn(C)c2)nc(-c2noc3c2CCC[C@@]32CCCc3sc(N)c(C#N)c32)n1)[C@@H]1CCCN1C [II-74] | 6 nM | 2860 nM | 0.48
25 | C[C@H](Oc1cc(-c2ccn(C)n2)nc(-c2noc3c2CCC[C@@]32CCCc3sc(N)c(C#N)c32)n1)[C@@H]1CCCN1C [II-96] | 2 nM | 307 nM | 0.25
26 | Cc1cn(-c2cc(O[C@@H](C)[C@@H]3CCCN3C)nc(-c3noc4c3CCC[C@@]43CCCc4sc(N)c(C#N)c43)n2)nn1 [II-106] | 9 nM | 2860 nM | 0.2
